The results in this text go back to PubChem BioAssay (NCI).

Some test systems named below: ACHN renal; UACC-62 melanoma; SW-620 colon; CCRF-CEM leukemia; NCI-H226 lung; HOP-92 NSCLC; SF-295 CNS; A549 NSCLC; CAKI-1 renal; SF-268 CNS.
Holding throughout (assay): growth of human tumour cells (NCI), 48 h

SMILES strings stand for the structures.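 Cells were grown in 96-well plates and exposed to each compound for 48 hours at five concentrations; endpoints were interpolated linearly between bracketing concentrations, or set to the highest concentration if not reached. GI50 is the concentration that inhibits growth by half. The concentration for full growth arrest is given as TGI.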 Some results are limits rather than exact numbers.

For `CC(C)(C)C(=O)[CH-]C(=O)C(C)(C)C.CC(C)(C)C(=O)[CH-]C(=O)C(C)(C)C.CN(C)c1ccc([O-])cc1.CN(C)c1ccc([O-])cc1.[Ti+4]`, the GI50 with ACHN renal is > 100 µM; with UACC-62 melanoma, > 100 µM; in the experiment with SW-620 colon, > 100 µM; with CCRF-CEM leukemia it was > 100 µM; in the experiment on NCI-H226 lung, > 100 µM; with HOP-92 NSCLC it was 72 µM. Moreover, the GI50 in the experiment on SF-295 CNS, in the experiment with A549 NSCLC, in the experiment with CAKI-1 renal and with SF-268 CNS was > 100 µM in each case. Besides, the TGI in the experiment with ACHN renal, in the experiment with UACC-62 melanoma, in the experiment with SW-620 colon, with CCRF-CEM leukemia, with NCI-H226 lung and in the experiment on HOP-92 NSCLC was > 100 µM in each case. Besides, the TGI in the experiment with SF-295 CNS, with A549 NSCLC, in the experiment on CAKI-1 renal and with SF-268 CNS was > 100 µM in each case.

On to `O=C(/C=C/c1ccccc1)c1ccc(NCc2nc3ccccc3[nH]2)cc1`, for which the TGI in the experiment with ACHN renal stood at 20.4 µM; in the experiment with UACC-62 melanoma it was 21.4 µM; with SW-620 colon, 8.43 µM; in the experiment on CCRF-CEM leukemia it was 8.38 µM; in the experiment with NCI-H226 lung, 16.8 µM; with HOP-92 NSCLC, 22.5 µM. Further, the TGI is 13.1 µM with SF-295 CNS, 17.4 µM in the experiment with A549 NSCLC, 25.2 µM in the experiment on CAKI-1 renal and 20.9 µM in the experiment with SF-268 CNS.

Turning to `CC(C)CCC1(CCN)C(=O)NC(=O)NC1=O`, the TGI in the experiment on ACHN renal is > 100 µM; with UACC-62 melanoma, > 100 µM; in the experiment with SW-620 colon, > 100 µM; in the experiment with CCRF-CEM leukemia, 48.3 µM; in the experiment with NCI-H226 lung, > 100 µM; in the experiment on HOP-92 NSCLC, > 100 µM. Also, the TGI in the experiment on SF-295 CNS, with A549 NSCLC, with CAKI-1 renal and in the experiment with SF-268 CNS was > 100 µM each time.

For `Cc1cc(I)cc(CN(C)CCCN2CCCC2)c1O`, the GI50 in the experiment with ACHN renal is 23.1 µM; with UACC-62 melanoma, 5.47 µM; in the experiment with SW-620 colon, 15.9 µM; with CCRF-CEM leukemia, 3.46 µM; in the experiment with NCI-H226 lung, 30.7 µM; with HOP-92 NSCLC, 15.8 µM. The GI50 in the experiment with SF-295 CNS was 13.7 µM; in the experiment on A549 NSCLC it was 29.9 µM; in the experiment on CAKI-1 renal it was 16.2 µM; with SF-268 CNS, 17.2 µM. Besides, the TGI is 65.4 µM with ACHN renal; 13.1 µM with UACC-62 melanoma; 35.4 µM in the experiment on SW-620 colon; 38.1 µM in the experiment with CCRF-CEM leukemia; > 100 µM in the experiment with NCI-H226 lung; 59.1 µM with HOP-92 NSCLC. Further, the TGI with SF-295 CNS is 28.4 µM; in the experiment with A549 NSCLC, > 100 µM; with CAKI-1 renal, 32.2 µM; in the experiment on SF-268 CNS it was 49.2 µM.

On to `COC(=O)C1(C)Cc2cc(OC(C)=O)c(OC(C)=O)cc2N1` (stereo not given), for which the GI50 is 3.42 µM in the experiment with ACHN renal; 4.09 µM in the experiment with UACC-62 melanoma; 8.83 µM in the experiment with SW-620 colon; 3.42 µM with CCRF-CEM leukemia; 14.8 µM with NCI-H226 lung; 2.19 µM in the experiment on HOP-92 NSCLC. Also, the GI50 with SF-295 CNS is 67.5 µM; with A549 NSCLC, 11.6 µM; with CAKI-1 renal, 2.98 µM; in the experiment on SF-268 CNS it was 16.1 µM. Moreover, the TGI is 19.9 µM with ACHN renal; 17.5 µM in the experiment with UACC-62 melanoma; 28.7 µM in the experiment on SW-620 colon; > 46 µM in the experiment with CCRF-CEM leukemia; 60 µM in the experiment on NCI-H226 lung; 8.69 µM in the experiment with HOP-92 NSCLC. Further, the TGI is > 100 µM in the experiment with SF-295 CNS, 29.4 µM in the experiment with A549 NSCLC, 11.3 µM in the experiment with CAKI-1 renal and 52.6 µM with SF-268 CNS.

Turning to `O=S(=O)(NCCCNc1nccc(-c2c(-c3ccc(F)cc3)nc3sccn23)n1)c1ccc2ccccc2c1`, the GI50 with ACHN renal is 3.42 µM; in the experiment with UACC-62 melanoma, 4.6 µM; with SW-620 colon, 6.4 µM; in the experiment with CCRF-CEM leukemia, 3.13 µM; in the experiment with NCI-H226 lung, 5.77 µM; in the experiment on HOP-92 NSCLC, 6.36 µM. Besides, the GI50 in the experiment with SF-295 CNS is 6.86 µM; in the experiment on A549 NSCLC, 4.43 µM; in the experiment with CAKI-1 renal it was 5.47 µM; with SF-268 CNS it was 6.46 µM. The TGI in the experiment with ACHN renal, with UACC-62 melanoma, in the experiment with SW-620 colon, in the experiment on CCRF-CEM leukemia, in the experiment with NCI-H226 lung and in the experiment with HOP-92 NSCLC was > 100 µM each time. Moreover, the TGI in the experiment with SF-295 CNS, in the experiment with A549 NSCLC, in the experiment on CAKI-1 renal and in the experiment on SF-268 CNS was > 100 µM in each case.

For `COC(=O)C(/C(=N\O)C(=O)Nc1cccc(Cl)c1C)c1cnc2ccccc2n1` (stereo not given), the TGI in the experiment on ACHN renal, with UACC-62 melanoma, with SW-620 colon, in the experiment with CCRF-CEM leukemia, with NCI-H226 lung and with HOP-92 NSCLC was > 100 µM each time. In addition, the TGI with SF-295 CNS, with A549 NSCLC, with CAKI-1 renal and in the experiment on SF-268 CNS was > 100 µM throughout.
